Measured values from patent US20040192888A1, “Method of preparing peptide with high yield and high purity using2-(4-nitrophenylsulfonyl) ethoxycarbonyl-amino acids” (priority 2001, published 2004).

Assay: Dissolution comparison of Nα-Nsc-amino acids and Nα-Fmoc-amino acids
Assay type: physicochemical
Design: key: ◯: dissolution; Δ: partial dissolution; X: no dissolution
Conditions: for Dissolved state, Fmoc, column B / Dissolved state, Fmoc, column A / Dissolved state, Fmoc, column D / Dissolved state, Fmoc, column C: Fmoc-amino acid; for Dissolved state, Fmoc, column B / Dissolved state, Fmoc, column A / Dissolved state, Nsc, column B / Dissolved state, Nsc, column A: 100 mg in 1 ml dichloromethane; for Dissolved state, Fmoc, column B / Dissolved state, Fmoc, column D / Dissolved state, Nsc, column B / Dissolved state, Nsc, column D: heated at 40° C. for 5 minutes, then room temperature 5 minutes; for Dissolved state, Fmoc, column A / Dissolved state, Fmoc, column C / Dissolved state, Nsc, column A / Dissolved state, Nsc, column C: stirring 5 minutes; for Dissolved state, Fmoc, column D / Dissolved state, Fmoc, column C / Dissolved state, Nsc, column D / Dissolved state, Nsc, column C: 15% DMF/DCM; for Dissolved state, Nsc, column B / Dissolved state, Nsc, column A / Dissolved state, Nsc, column D / Dissolved state, Nsc, column C: Nsc-amino acid
Method: Since only amino acids fully dissolved in a solvent can be used in acylation reactions, the following tests were performed to find solvent conditions in which amino acids can be completely dissolved.
100 mg of each of Nα-Nsc-amino acids and Nα-Fmoc-amino acids shown in Table 1, below, were precisely weighed and added to two containers added with 1 ml of dichloromethane (hereinafter, referred to as “DCM”), followed by stirring for 5 minutes. The dissolved states of amino acids were observed and are expressed in column A of the following Table 1.
Other amino acids, exclusive of totally dissolved amino acids, were heated in an oven at 40° C. for 5 minutes, and allowed to stand at room temperature for 5 minutes. Their dissolved states are shown in column B.
As such, the undissolved amino acids were dissolved in 15% dimethylformamide (hereinafter, referred to as “DMF”)/DCM in the same manner as in the case of the above column A, and their dissolved states are presented in column C.
Still undissolved amino acids were heated in an oven at 40° C. for 5 minutes, and allowed to stand at room temperature for 5 minutes. Their dissolved states were observed and are shown in column D.

SMILES	Dissolved state, Fmoc, column B	Dissolved state, Fmoc, column A	Dissolved state, Fmoc, column D	Dissolved state, Fmoc, column C	Dissolved state, Nsc, column B	Dissolved state, Nsc, column A	Dissolved state, Nsc, column D	Dissolved state, Nsc, column C
CC(C)C[C@@H](NC(=O)OCC1c2ccccc2-c2ccccc21)C(=O)O [Fmoc-Leu, reference compound]	◯	Δ	◯	◯	–	–	–	–
CC(C)(C)OCC(NC(=O)OCC1c2ccccc2-c2ccccc21)C(=O)O (stereo not drawn) [Fmoc-Ser, reference compound]	◯	◯	◯	◯	–	–	–	–
CC(C)CC(NC(=O)OCCS(=O)(=O)c1ccc([N+](=O)[O-])cc1)C(=O)O (stereo not drawn) [Nsc-Leu]	–	–	–	–	X	X	◯	Δ
CSCC[C@H](NC(=O)OCCS(=O)(=O)c1ccc([N+](=O)[O-])cc1)C(=O)O [Nsc-Met]	–	–	–	–	◯	Δ	◯	◯
CC(C)(C)OC(=O)NCCCCC(NC(=O)OCC1c2ccccc2-c2ccccc21)C(=O)O (stereo not drawn) [Fmoc-Lys, reference compound]	◯	◯	◯	◯	–	–	–	–
CC(=O)NCSCC(NC(=O)OCC1c2ccccc2-c2ccccc21)C(=O)O (stereo not drawn) [Fmoc-Cys, reference compound]	X	X	◯	Δ	–	–	–	–
O=C(N[C@@H](Cc1ccccc1)C(=O)O)OCC1c2ccccc2-c2ccccc21 [Fmoc-Phe, reference compound]	X	X	◯	Δ	–	–	–	–
CSCC[C@H](NC(=O)OCC1c2ccccc2-c2ccccc21)C(=O)O [Fmoc-Met, reference compound]	◯	X	◯	◯	–	–	–	–
CC(C)C(NC(=O)OCCS(=O)(=O)c1ccc([N+](=O)[O-])cc1)C(=O)O (stereo not drawn) [Nsc-Val]	–	–	–	–	◯	◯	◯	◯
Cc1c(C)c(S(=O)(=O)N=C(N)NCCCC(NC(=O)OCCS(=O)(=O)c2ccc([N+](=O)[O-])cc2)C(=O)O)c(C)c2c1OC(C)(C)C2 (stereo not drawn) [Nsc-Arg]	–	–	–	–	◯	◯	◯	◯
O=C(O)[C@@H]1CCCN1C(=O)OCCS(=O)(=O)c1ccc([N+](=O)[O-])cc1 [Nsc-Pro]	–	–	–	–	◯	◯	◯	◯
CC(C)[C@H](NC(=O)OCC1c2ccccc2-c2ccccc21)C(=O)O [Fmoc-Val, reference compound]	X	X	◯	◯	–	–	–	–
O=C(CC(NC(=O)OCCS(=O)(=O)c1ccc([N+](=O)[O-])cc1)C(=O)O)NC(c1ccccc1)(c1ccccc1)c1ccccc1 (stereo not drawn) [Nsc-Asn]	–	–	–	–	X	X	◯	◯
CC(C)(C)Oc1ccc(CC(NC(=O)OCCS(=O)(=O)c2ccc([N+](=O)[O-])cc2)C(=O)O)cc1 (stereo not drawn) [Nsc-Tyr]	–	–	–	–	◯	◯	◯	◯
O=C(NC(Cc1c[nH]c2ccccc12)C(=O)O)OCC1c2ccccc2-c2ccccc21 (stereo not drawn) [Fmoc-Trp, reference compound]	X	X	◯	◯	–	–	–	–
CC(C)(C)OC(=O)NCCCCC(NC(=O)OCCS(=O)(=O)c1ccc([N+](=O)[O-])cc1)C(=O)O (stereo not drawn) [Nsc-Lys]	–	–	–	–	◯	◯	◯	◯
O=C(O)CNC(=O)OCCS(=O)(=O)c1ccc([N+](=O)[O-])cc1 [Nsc-Gly]	–	–	–	–	X	X	◯	Δ

SMILES	Dissolved state, Fmoc, column B	Dissolved state, Fmoc, column A	Dissolved state, Fmoc, column D	Dissolved state, Fmoc, column C	Dissolved state, Nsc, column B	Dissolved state, Nsc, column A	Dissolved state, Nsc, column D	Dissolved state, Nsc, column C
O=C(O)[C@@H]1CCCN1C(=O)OCC1c2ccccc2-c2ccccc21 [Fmoc-Pro, reference compound]	◯	◯	◯	◯	–	–	–	–
CC[C@H](C)[C@H](NC(=O)OCC1c2ccccc2-c2ccccc21)C(=O)O [Fmoc-Iie, reference compound]	Δ	Δ	◯	◯	–	–	–	–
O=C(O)CNC(=O)OCC1c2ccccc2-c2ccccc21 [Fmoc-Gly, reference compound]	X	X	◯	Δ	–	–	–	–
CC(OC(C)(C)C)C(NC(=O)OCCS(=O)(=O)c1ccc([N+](=O)[O-])cc1)C(=O)O (stereo not drawn) [Nsc-Thr]	–	–	–	–	◯	◯	◯	◯
O=C(NC(Cc1cn(C(c2ccccc2)(c2ccccc2)c2ccccc2)cn1)C(=O)O)OCCS(=O)(=O)c1ccc([N+](=O)[O-])cc1 (stereo not drawn) [Nsc-His]	–	–	–	–	◯	Δ	◯	◯
C[C@H](NC(=O)OCC1c2ccccc2-c2ccccc21)C(=O)O [Fmoc-Ala, reference compound]	X	X	◯	Δ	–	–	–	–
CC(C)(C)Oc1ccc(CC(NC(=O)OCC2c3ccccc3-c3ccccc32)C(=O)O)cc1 (stereo not drawn) [Fmoc-Tyr, reference compound]	◯	Δ	◯	◯	–	–	–	–
O=C(NC(Cc1cn(C(c2ccccc2)(c2ccccc2)c2ccccc2)cn1)C(=O)O)OCC1c2ccccc2-c2ccccc21 (stereo not drawn) [Fmoc-His, reference compound]	◯	◯	◯	◯	–	–	–	–
CC(C)(C)OC(=O)CCC(NC(=O)OCCS(=O)(=O)c1ccc([N+](=O)[O-])cc1)C(=O)O (stereo not drawn) [Nsc-Glu]	–	–	–	–	◯	◯	◯	◯
O=C(N[C@@H](Cc1c[nH]c2ccccc12)C(=O)O)OCCS(=O)(=O)c1ccc([N+](=O)[O-])cc1 [Nsc-Trp]	–	–	–	–	X	X	◯	Δ
O=C(N[C@@H](Cc1ccccc1)C(=O)O)OCCS(=O)(=O)c1ccc([N+](=O)[O-])cc1 [Nsc-Phe]	–	–	–	–	X	X	◯	◯
CC(C)(C)OCC(NC(=O)OCCS(=O)(=O)c1ccc([N+](=O)[O-])cc1)C(=O)O (stereo not drawn) [Nsc-Ser]	–	–	–	–	◯	◯	◯	◯
C[C@H](NC(=O)OCCS(=O)(=O)c1ccc([N+](=O)[O-])cc1)C(=O)O [Nsc-Ala]	–	–	–	–	X	X	◯	◯
CC[C@H](C)[C@H](NC(=O)OCCS(=O)(=O)c1ccc([N+](=O)[O-])cc1)C(=O)O [Nsc-Iie]	–	–	–	–	◯	Δ	◯	◯
CC(OC(C)(C)C)C(NC(=O)OCC1c2ccccc2-c2ccccc21)C(=O)O (stereo not drawn) [Fmoc-Thr, reference compound]	◯	◯	◯	◯	–	–	–	–
NC(=O)CC[C@H](NC(=O)OCC1c2ccccc2-c2ccccc21)C(=O)O [Fmoc-Gln, reference compound]	◯	◯	◯	◯	–	–	–	–
